In patent US10543202B2 (University of Saskatchewan, priority 2017, dated 2020):
“Also recorded” adds a separate entry of the source.

Key:
Format in all cases: physicochemical
[1] = Thin film of cream exposed to UVA light (photostability); conditions: for effect of photostabilizer in nifedipine emulsion on stability of nifedipine to UVA light: photostabilizer incorporated at varying concentrations up to 3% w/w in nifedipine 2% w/w cream
Description: (§1) Light Exposure: A UVA lamp was mounted 8.5 inches above a lab bench surface and the flux set to 740-750 μW/cm^2. This level of flux is roughly equivalent to a bright sunny day in mid-summer. […] The lamp apparatus was placed inside an enclosure with an access door, to prevent ambient light entering and for worker safety. For samples exposed to “ambient light”, these were placed on a laboratory bench where standard fluorescent lighting was used. […] To prevent drying, the samples were covered with Saran Wrap®, a plastic film that was determined to be UVA-transparent. After the allotted exposure time the cream was scraped off the slide for extraction with methanol. Samples which were exposed while in solution and not incorporated in a cream were dissolved in methanol as a 20 mL solution in a 100 mL beaker.
The sample was warmed in a water bath to 85° C. to melt lipids, followed by addition of 5 mL of methanol and vortex mixing. The samples were centrifuged at 14,000×g for 5 minutes and the supernatant retained for analysis.
Values reported represent mean±SD for triplicate measurements.

[2] = Emulsion phase stability analysis (LUMiSizer photocentrifuge, instability index); conditions: photocentrifuge 42° C., 12 hrs, versus emulsion without photostabilizers
Description: This allows for an approximation of the relative stability to phase separation of emulsions that differ in the type or percentage of photoprotectant and for confirming batch-to-batch consistency in stability against phase separation.^35 For each sample type, triplicate samples of 2 mL were loaded into photocentrifuge acrylic cuvettes. The samples were centrifuged at 42° C.×12 hrs. Phase separation was detected as an increase in light transmission at the top of the sample, which is interpreted as an “instability index” reflecting the rate of change of light transmission.

[3] = Mass spectrometry analysis of nifedipine and its photodegradants in UVA-exposed creams
Description: as §1

Row | SMILES | effect of photostabilizer in nifedipine emulsion on stability of nifedipine to UVA light [1] | effect of photostabilizer on instability index / phase stability of nifedipine emulsion [2] | alternative nifedipine degradation pathways in presence of photostabilizer [3] | effect of quercetin on photostability of nifedipine cream after UVA exposure ([1]; quercetin 0.5% w/w alone in nifedipine cream) | difference in nifedipine concentration between preparations with and without rutin ([1]; 2 h UVA exposure) | effectiveness as photoprotectant for nifedipine in O/W emulsion ([1]; concentrations up to 2% (w/w)) | reduction of UVA-induced degradation of nifedipine ([1]; rutin 0.5-3% (w/w), 20 mg thin film, over 3 hrs)
1 | COc1ccc(C(=O)CC(=O)c2ccc(C(C)(C)C)cc2)cc1 [BMDBM, 1-(4-methoxyphenyl)-3-[4-(2-methyl-2-propanyl)phenyl]-1,3-propanedione] | moderately effective | reduced the instability; also recorded: increased the stability of the nifedipine emulsion | no alternative degradation pathways identified |  |  |  | 
2 | O=c1c(O)c(-c2ccc(O)c(O)c2)oc2cc(O)cc(O)c12 [quercetin, 2-(3,4-dihydroxyphenyl)-3,5,7-trihydroxy-4H-chromen-4-one] | increased the stability of nifedipine to UVA light | reduced the instability; also recorded: increased the stability of the nifedipine emulsion | no alternative degradation pathways identified | moderately effective; also recorded: photostability was improved |  |  | 
3 | C[C@@H]1O[C@@H](OC[C@H]2O[C@@H](Oc3c(-c4ccc(O)c(O)c4)oc4cc(O)cc(O)c4c3=O)[C@H](O)[C@@H](O)[C@@H]2O)[C@H](O)[C@H](O)[C@H]1O [rutin, 2-(3,4-dihydroxyphenyl)-5,7-dihydroxy-4-oxo-4H-chromen-3-yl 6-O-(6-deoxy-α-L-mannopyranosyl)-β-D-glucopyranoside] | not protected from photodegradation; also recorded: not effective |  | no alternative degradation pathways identified |  | No significant difference | ineffective | did not significantly reduce UVA-induced degradation of nifedipine
